Measured values: patent publication US20230407243A1, “GENETIC PLATFORM TO INVESTIGATE THE FUNCTIONS OF BACTERIAL DRUG EFFLUX PUMPS” (priority 2022, published 2023)

Experiments:
Type in all cases: cell-based, Escherichia coli
[1] = test system: E. coli EKO-35; assay: microbe, parasite or virus in culture; conditions: for Fold change of MICs: EKO-35 compared to EKO-35 (reference); for Minimum inhibitory concentration (MIC), EKO-35: Table 10, without pore; for Minimum inhibitory concentration (MIC), EKO-35 / Minimum Inhibitory Concentration, EKO-35: technical duplicate; for Minimum Inhibitory Concentration, EKO-35: Table 13A, non-porinated
Method in brief: (§1)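 Broth MIC in cation-adjusted Mueller-Hinton (MHB II) following twofold compound titration in duplicate. Bacteria were prepared at OD600 ~1.0 in PBS and diluted 1/2000. Endpoint OD600 after 18 h at 37 °C was corrected using the pre-incubation reading.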

[2] = test system: E. coli ΔtolC; assay: microbe, parasite or virus in culture; conditions: technical duplicate; for Minimum inhibitory concentration (MIC), ΔtolC: Table 10, without pore; for Minimum Inhibitory Concentration, ΔtolC: Table 13A, non-porinated
Method in brief: as §1

[3] = test system: wild-type E. coli K-12 str. BW25113; assay: microbe, parasite or virus in culture; conditions: technical duplicate; for Minimum inhibitory concentration (MIC), K-12: Table 10, without pore; for Minimum Inhibitory Concentration, K-12: Table 13A, non-porinated
Method in brief: as §1

[4] = test system: EKO-35 araC::acrBD408A; assay: MIC susceptibility profiling, efflux platform; conditions: for Fold change of MICs: EKO-35 araC::acrBD408A compared to EKO-35; for Minimum Inhibitory Concentration, EKO-35 araC::acrBD408A: Table 13B, non-porinated, technical duplicate
Method in brief: as §1

[5] = test system: EKO-35 araC::acrB; assay: MIC susceptibility profiling, efflux platform; conditions: for Fold change of MICs: EKO-35 araC::acrB compared to EKO-35; for Minimum Inhibitory Concentration, EKO-35 araC::acrB: Table 13A, non-porinated, technical duplicate
Method in brief: as §1

[6] = test system: EKO-35 araC::acrD; assay: MIC susceptibility profiling, efflux platform; conditions: for Fold change of MICs: EKO-35 araC::acrD compared to EKO-35; for Minimum Inhibitory Concentration, EKO-35 araC::acrD: Table 13A, non-porinated, technical duplicate
Method in brief: as §1

[7] = test system: EKO-35 araC::acrEF; assay: MIC susceptibility profiling, efflux platform; conditions: for Fold change of MICs: EKO-35 araC::acrEF compared to EKO-35; for Minimum Inhibitory Concentration, EKO-35 araC::acrEF: Table 13A, non-porinated, technical duplicate
Method in brief: as §1

[8] = test system: EKO-35 araC::emrAB; assay: MIC susceptibility profiling, efflux platform; conditions: for Fold change of MICs: EKO-35 araC::emrAB compared to EKO-35; for Minimum Inhibitory Concentration, EKO-35 araC::emrAB: Table 13B, non-porinated, technical duplicate
Method in brief: as §1

[9] = test system: EKO-35 araC::emrKY; assay: MIC susceptibility profiling, efflux platform; conditions: for Fold change of MICs: EKO-35 araC::emrKY compared to EKO-35; for Minimum Inhibitory Concentration, EKO-35 araC::emrKY: Table 13B, non-porinated, technical duplicate
Method in brief: as §1

[10] = test system: EKO-35 araC::macAB; assay: MIC susceptibility profiling, efflux platform; conditions: for Fold change of MICs: EKO-35 araC::macAB compared to EKO-35; for Minimum Inhibitory Concentration, EKO-35 araC::macAB: Table 13B, non-porinated, technical duplicate
Method in brief: as §1

[11] = test system: EKO-35 araC::mdtBC; assay: MIC susceptibility profiling, efflux platform; conditions: for Fold change of MICs: EKO-35 araC::mdtBC compared to EKO-35; for Minimum Inhibitory Concentration, EKO-35 araC::mdtBC: Table 13B, non-porinated, technical duplicate
Method in brief: as §1

[12] = test system: EKO-35 araC::mdtEF; assay: MIC susceptibility profiling, efflux platform; conditions: for Fold change of MICs: EKO-35 araC::mdtEF compared to EKO-35; for Minimum Inhibitory Concentration, EKO-35 araC::mdtEF: Table 13A, non-porinated, technical duplicate
Method in brief: as §1

[13] = test system: EKO-35 araC::mexCD (MexCD from P. aeruginosa); assay: MIC susceptibility profiling, efflux platform; conditions: for Fold change of MICs: EKO-35 araC::mexCD compared to EKO-35; for Minimum Inhibitory Concentration, EKO-35 araC::mexCD: Table 13B, non-porinated, technical duplicate
Method in brief: as §1

[14] = test system: wild-type (WT) K-12-Pore; assay: microbe, parasite or virus in culture; conditions: technical duplicate; for Minimum inhibitory concentration (MIC), Pore K-12: Table 10, with pore; for Minimum inhibitory concentration, K-12 (WT)-Pore: Table 14A, porinated
Method in brief: (§2)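 MIC values come from background-corrected OD600 readings (pre-incubation OD subtracted) after 18 h at 37 °C and 900 rpm in MHB II. Compounds were tested in duplicate as 2-fold dilutions. The inoculum came from 18 h LB cultures adjusted to OD600 ~1.0 and diluted 1/2000, and the pore-bearing strains were vancomycin-checked beforehand.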

[15] = test system: ΔtolC-Pore; assay: microbe, parasite or virus in culture; conditions: technical duplicate; for Minimum inhibitory concentration (MIC), Pore ΔtolC: Table 10, with pore; for Minimum inhibitory concentration, ΔtolC-Pore: Table 14A, porinated
Method in brief: as §2

[16] = test system: EKO-35-Pore; assay: MIC susceptibility profiling, porinated strain; conditions: for Fold changes of MICs: EKO-35-Pore compared to EKO-35-Pore (reference); for Minimum inhibitory concentration (MIC), Pore EKO-35: Table 10, with pore; for Minimum inhibitory concentration (MIC), Pore EKO-35 / Minimum inhibitory concentration, EKO-35-Pore: technical duplicate; for Minimum inhibitory concentration, EKO-35-Pore: Table 14A, porinated
Method in brief: as §2

[17] = test system: EKO-35 araC::acrB Pore; assay: MIC susceptibility profiling, porinated efflux platform; conditions: for Fold changes of MICs: EKO-35 araC::acr-B Pore compared to EKO-35-Pore; for Minimum inhibitory concentration, EKO-35 araC::acrB Pore: Table 14A, porinated, technical duplicate
Method in brief: as §2

[18] = test system: EKO-35 araC::mdtBC Pore; assay: as above; conditions: for Fold changes of MICs: EKO-35 araC::mdtBC Pore compared to EKO-35-Pore; for Minimum inhibitory concentration: EKO-35 araC::mdtBC Pore, technical duplicate
Method in brief: as §2

[19] = test system: EKO-35 araC::mdtEF Pore; assay: as above; conditions: for Fold changes of MICs: EKO-35 araC::mdtEF Pore compared to EKO-35-Pore; for Minimum inhibitory concentration, EKO-35 araC::mdtEF Pore: Table 14A, porinated, technical duplicate
Method in brief: as §2

benzalkonium chloride
Fold change of MICs [1]: 1 fold | Minimum inhibitory concentration (MIC), EKO-35 [1]: 0.391 µg/mL | Minimum Inhibitory Concentration, EKO-35 [1]: 0.391 µg/mL | Minimum inhibitory concentration (MIC), ΔtolC [2]: 0.391 µg/mL | Minimum Inhibitory Concentration, ΔtolC [2]: 0.391 µg/mL | Minimum inhibitory concentration (MIC), K-12 [3]: 12.5 µg/mL | Minimum Inhibitory Concentration, K-12 [3]: 12.5 µg/mL | Fold change of MICs [4]: 1 fold | Minimum Inhibitory Concentration, EKO-35 araC::acrBD408A [4]: 0.391 µg/mL | Fold change of MICs [5]: 32 fold | Minimum Inhibitory Concentration, EKO-35 araC::acrB [5]: 12.5 µg/mL | Fold change of MICs [6]: 1 fold | Minimum Inhibitory Concentration, EKO-35 araC::acrD [6]: 0.391 µg/mL | Fold change of MICs [7]: 4 fold | Minimum Inhibitory Concentration, EKO-35 araC::acrEF [7]: 1.563 µg/mL | Fold change of MICs [8]: 1 fold | Minimum Inhibitory Concentration, EKO-35 araC::emrAB [8]: 0.391 µg/mL | Fold change of MICs [9]: 1 fold | Minimum Inhibitory Concentration, EKO-35 araC::emrKY [9]: 0.391 µg/mL | Fold change of MICs [10]: 1 fold | Minimum Inhibitory Concentration, EKO-35 araC::macAB [10]: 0.391 µg/mL | Fold change of MICs [11]: 1 fold | Minimum Inhibitory Concentration, EKO-35 araC::mdtBC [11]: 0.391 µg/mL | Fold change of MICs [12]: 4 fold | Minimum Inhibitory Concentration, EKO-35 araC::mdtEF [12]: 1.563 µg/mL | Fold change of MICs [13]: 2 fold | Minimum Inhibitory Concentration, EKO-35 araC::mexCD [13]: 0.781 µg/mL | Minimum inhibitory concentration (MIC), Pore K-12 [14]: 6.25 µg/mL | Minimum inhibitory concentration, K-12 (WT)-Pore [14]: 6.25 µg/mL | Minimum inhibitory concentration (MIC), Pore ΔtolC [15]: 0.391 µg/mL | Minimum inhibitory concentration, ΔtolC-Pore [15]: 0.391 µg/mL | Fold changes of MICs [16]: 1 fold | Minimum inhibitory concentration (MIC), Pore EKO-35 [16]: 0.391 µg/mL | Minimum inhibitory concentration, EKO-35-Pore [16]: 0.391 µg/mL | Fold changes of MICs [17]: 8 fold | Minimum inhibitory concentration, EKO-35 araC::acrB Pore [17]: 3.125 µg/mL | Fold changes of MICs [18]: 1 fold | Minimum inhibitory concentration [18]: 0.195 µg/mL | Fold changes of MICs [19]: 4 fold | Minimum inhibitory concentration, EKO-35 araC::mdtEF Pore [19]: 1.563 µg/mL

deoxycholate
Fold change of MICs [1]: 1 fold | Minimum inhibitory concentration (MIC), EKO-35 [1]: 375 µg/mL | Minimum Inhibitory Concentration, EKO-35 [1]: 375 µg/mL | Minimum inhibitory concentration (MIC), ΔtolC [2]: 187.5 µg/mL | Minimum Inhibitory Concentration, ΔtolC [2]: 187.5 µg/mL | Minimum inhibitory concentration (MIC), K-12 [3]: 1500 µg/mL | Minimum Inhibitory Concentration, K-12 [3]: 1500 µg/mL | Fold change of MICs [4]: 1 fold | Minimum Inhibitory Concentration, EKO-35 araC::acrBD408A [4]: 375 µg/mL | Fold change of MICs [5]: 4 fold | Minimum Inhibitory Concentration, EKO-35 araC::acrB [5]: 1500 µg/mL | efflux pump-mediated resistance vs EKO-35 ([6]; AcrD): confirmed | Fold change of MICs [6]: 4 fold | Minimum Inhibitory Concentration, EKO-35 araC::acrD [6]: 1500 µg/mL | Fold change of MICs [7]: 4 fold | Minimum Inhibitory Concentration, EKO-35 araC::acrEF [7]: 1500 µg/mL | Fold change of MICs [8]: 4 fold | Minimum Inhibitory Concentration, EKO-35 araC::emrAB [8]: 1500 µg/mL | Fold change of MICs [9]: 1 fold | efflux pump-mediated resistance vs EKO-35 ([9]; EmrKY): could not substantiate | Minimum Inhibitory Concentration, EKO-35 araC::emrKY [9]: 375 µg/mL | Fold change of MICs [10]: 1 fold | Minimum Inhibitory Concentration, EKO-35 araC::macAB [10]: 187.5 µg/mL | Fold change of MICs [11]: 4 fold | efflux pump-mediated resistance vs EKO-35 ([11]; MdtBC): conferred resistance | Minimum Inhibitory Concentration, EKO-35 araC::mdtBC [11]: 1500 µg/mL | Fold change of MICs [12]: 4 fold | Minimum Inhibitory Concentration, EKO-35 araC::mdtEF [12]: 1500 µg/mL | Fold change of MICs [13]: 4 fold | Minimum Inhibitory Concentration, EKO-35 araC::mexCD [13]: 1500 µg/mL | Minimum inhibitory concentration (MIC), Pore K-12 [14]: 1500 µg/mL | Minimum inhibitory concentration, K-12 (WT)-Pore [14]: 1500 µg/mL | Minimum inhibitory concentration (MIC), Pore ΔtolC [15]: 46.875 µg/mL | Minimum inhibitory concentration, ΔtolC-Pore [15]: 46.875 µg/mL | Fold changes of MICs [16]: 1 fold | Minimum inhibitory concentration (MIC), Pore EKO-35 [16]: 187.5 µg/mL | Minimum inhibitory concentration, EKO-35-Pore [16]: 187.5 µg/mL | Fold changes of MICs [17]: 8 fold | Minimum inhibitory concentration, EKO-35 araC::acrB Pore [17]: 1500 µg/mL | Fold changes of MICs [18]: 4 fold | Minimum inhibitory concentration [18]: 750 µg/mL | Fold changes of MICs [19]: 8 fold | Minimum inhibitory concentration, EKO-35 araC::mdtEF Pore [19]: 1500 µg/mL
